Measured values as given in PubChem BioAssay AID248 (DTP/NCI, 2004).
Values joined by “and” are separate entries in the source; they are usually repeats but may differ in a detail not shown here. Equal values may be shown once. Toxic doses and inconclusive results are not listed. No stated cut-off is given here; in the data, active means T/C of 150% or more; inactive means T/C below 125%.

System: L1210 leukemia ip in BDF1 mice, survival T/C
Test: NCI In Vivo Anticancer Drug Screen. Data for tumor model L1210 Leukemia (intraperitoneal) in B6D2F1 (BDF1) mice
Conditions: endpoint: mean survival time, higher = longer survival
Procedure, shortened: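 Read-out is survival time, reported as the treated-group measurement over the vehicle-control measurement.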

[1] = dose: 100.0 mg/kg/injection, schedule: Q01DX009 (ip), vehicle: Klucel (hydroxypropylcellulose) (HPC)
[2] = dose: 100.0 mg/kg/injection, schedule: Q04DX003 (ip), vehicle: Klucel (hydroxypropylcellulose) (HPC)
[3] = dose: 200.0 mg/kg/injection, schedule: Q01DX009 (ip), vehicle: Klucel (hydroxypropylcellulose) (HPC)
[4] = dose: 200.0 mg/kg/injection, schedule: Q04DX003 (ip), vehicle: Klucel (hydroxypropylcellulose) (HPC)
[5] = dose: 400.0 mg/kg/injection, schedule: Q01DX009 (ip), vehicle: Klucel (hydroxypropylcellulose) (HPC)
[6] = dose: 400.0 mg/kg/injection, schedule: Q04DX003 (ip), vehicle: Klucel (hydroxypropylcellulose) (HPC)
[7] = dose: 100.0 mg/kg/injection, schedule: Q01DX009 (ip), vehicle: saline with Tween-80
[8] = dose: 200.0 mg/kg/injection, schedule: Q01DX009 (ip), vehicle: saline with Tween-80
[9] = dose: 400.0 mg/kg/injection, schedule: Q01DX009 (ip), vehicle: saline with Tween-80
[10] = dose: 100.0 mg/kg/injection, schedule: Q01DX001 (ip), vehicle: saline
[11] = dose: 200.0 mg/kg/injection, schedule: Q01DX001 (ip), vehicle: saline
[12] = dose: 400.0 mg/kg/injection, schedule: Q01DX001 (ip), vehicle: saline
[13] = dose: 100.0 mg/kg/injection, schedule: Q01DX001 (ip), vehicle: carboxymethylcellulose (CMC)
[14] = dose: 200.0 mg/kg/injection, schedule: Q01DX001 (ip), vehicle: carboxymethylcellulose (CMC)
[15] = dose: 400.0 mg/kg/injection, schedule: Q01DX001 (ip), vehicle: carboxymethylcellulose (CMC)
[16] = dose: 100.0 mg/kg/injection, schedule: Q04DX003 (ip), vehicle: saline with Tween-80
[17] = dose: 200.0 mg/kg/injection, schedule: Q04DX003 (ip), vehicle: saline with Tween-80
[18] = dose: 400.0 mg/kg/injection, schedule: Q04DX003 (ip), vehicle: saline with Tween-80
[19] = dose: 100.0 mg/kg/injection, schedule: Q04DX003 (ip), vehicle: saline
[20] = dose: 200.0 mg/kg/injection, schedule: Q04DX003 (ip), vehicle: saline

Measured: T/C

Cc1cc([N+](=O)[O-])c(N)c([N+](=O)[O-])c1
inactive: [1] 98 % of control | [2] 105 % of control | [3] 92 % of control | [4] 105 % of control | [5] 97 % of control | [6] 105 % of control

CCOC(=O)C(CO)(CC(CO)(C(C)=O)C(=O)OCC)C(C)=O (configuration not stated)
inactive: dose: 222.0 mg/kg/injection, schedule: Q01DX Z (ip), vehicle: methylcellulose (MC) 98 % of control | dose: 333.0 mg/kg/injection, schedule: Q01DX Z (ip), vehicle: methylcellulose (MC) 110 % of control | dose: 500.0 mg/kg/injection, schedule: Q01DX Z (ip), vehicle: methylcellulose (MC) 108 % of control

CCOC(OCC)c1ccccc1 (tested in a mixture with another compound)
inactive: [7] 100 % of control | [8] 100 % of control | [9] 94 % of control

NC(N)=N/N=C/c1c(O)ccc2ccccc12
inactive: dose: 15.0 mg/kg/injection, schedule: Q01DX Z (ip), vehicle: saline 99 % of control | dose: 15.6 mg/kg/injection, schedule: Q01DX010 (oral), vehicle: saline 117 % of control | dose: 31.0 mg/kg/injection, schedule: Q01DX Z (ip), vehicle: saline 94 % of control | dose: 31.3 mg/kg/injection, schedule: Q01DX010 (oral), vehicle: saline 118 % of control | dose: 63.0 mg/kg/injection, schedule: Q01DX Z (ip), vehicle: saline 86 % of control

Clc1cc(-c2ccccc2Br)nc2ccccc12
inactive: [10] 90 % of control | [11] 90 % of control | [12] 88 % of control

CN(C(=O)c1ccc([N+](=O)[O-])cc1)c1ccccc1
inactive: dose: 50.0 mg/kg/injection, schedule: Q01DX001 (ip), vehicle: carboxymethylcellulose (CMC) 100 % of control | [13] 118 % of control | [1] 103 % of control | dose: 100.0 mg/kg/injection, schedule: Q04DX002 (ip), vehicle: Klucel (hydroxypropylcellulose) (HPC) 93 % of control | [14] 108 % of control | [3] 96 % of control | dose: 200.0 mg/kg/injection, schedule: Q04DX002 (ip), vehicle: Klucel (hydroxypropylcellulose) (HPC) 90 % of control | [15] 96 % of control | [5] 100 % of control | dose: 400.0 mg/kg/injection, schedule: Q04DX002 (ip), vehicle: Klucel (hydroxypropylcellulose) (HPC) 123 % of control

CCCCN(CCCC)C(=O)OCC
inactive: [10] 103 % of control | [11] 94 % of control | [12] 101 % of control

CC(C)(SCc1ccc([N+](=O)[O-])cc1)C(N)C(=O)O (configuration not stated)
inactive: [2] 101 % of control | [4] 100 % of control | [6] 91 % of control

CN1C(=O)c2c(ccc3c2OCO3)C2C(O)Cc3cc4c(cc3C21)OCO4 (configuration not stated)
inactive: [10] 100 % of control | [11] 94 % of control | [12] 107 % of control

O=C1c2ccccc2C(=O)N1C/C=C/Cl
inactive: [16] 104 % of control | [17] 108 % of control | [18] 101 % of control

Cc1ccc(N=NN(C)CC#N)cc1
inactive: dose: 25.0 mg/kg/injection, schedule: Q04DX003 (ip), vehicle: other 96 % of control | dose: 50.0 mg/kg/injection, schedule: Q04DX003 (ip), vehicle: other 96 % of control | dose: 100.0 mg/kg/injection, schedule: Q04DX003 (ip), vehicle: other 93 % of control and 105 % of control

CC1CCCC(C[N+](C)(C)C)C1=O (configuration not stated)
inactive: [19] 93 % of control | [20] 101 % of control

COc1cc(/C=C2/SC(=S)NC2=O)cc(OC)c1OC
inactive: [7] 96 % of control | [16] 100 % of control | [8] 92 % of control | [17] 100 % of control | [9] 97 % of control | [18] 117 % of control

S=C1SCCS1
inactive: dose: 100.0 mg/kg/injection, schedule: Q01DX009 (ip), vehicle: saline sonified 98 % of control | dose: 200.0 mg/kg/injection, schedule: Q01DX009 (ip), vehicle: saline sonified 95 % of control | dose: 400.0 mg/kg/injection, schedule: Q01DX009 (ip), vehicle: saline sonified 97 % of control

Cc1ccc2nc3c(cc(F)c4ccccc43)c(C)c2c1
inactive: dose: 50.0 mg/kg/injection, schedule: Q01DX009 (ip), vehicle: saline with Tween-80 105 % of control | [7] 87 % of control

OC1C2C=CC1C1C=CC1=CC2 (configuration not stated)
inactive: dose: 50.0 mg/kg/injection, schedule: Q01DX001 (ip), vehicle: saline with Tween-80 103 % of control | dose: 100.0 mg/kg/injection, schedule: Q01DX001 (ip), vehicle: saline with Tween-80 108 % of control | dose: 200.0 mg/kg/injection, schedule: Q01DX001 (ip), vehicle: saline with Tween-80 98 % of control

CCOC(=O)N(C)c1ccccc1
inactive: [1] 101 % of control | [2] 97 % of control | [3] 105 % of control | [4] 97 % of control | [5] 101 % of control | [6] 97 % of control

O=C(O)Cc1cccnc1
inactive: dose: 100.0 mg/kg/injection, schedule: Q01DX009 (ip), vehicle: saline 102 % of control | [19] 101 % of control | dose: 200.0 mg/kg/injection, schedule: Q01DX009 (ip), vehicle: saline 100 % of control | [20] 104 % of control | dose: 400.0 mg/kg/injection, schedule: Q01DX009 (ip), vehicle: saline 89 % of control | dose: 400.0 mg/kg/injection, schedule: Q04DX003 (ip), vehicle: saline 95 % of control

O=C(O)c1c(O)c2cc([N+](=O)[O-])ccc2oc1=O
inactive: [13] 89 % of control | dose: 100.0 mg/kg/injection, schedule: Q04DX002 (ip), vehicle: saline with Tween-80 95 % of control and 111 % of control | [14] 103 % of control | dose: 200.0 mg/kg/injection, schedule: Q04DX002 (ip), vehicle: saline with Tween-80 114 % of control | [15] 100 % of control | dose: 400.0 mg/kg/injection, schedule: Q04DX002 (ip), vehicle: saline with Tween-80 115 % of control

Cc1cn(C2OC(CO)C(O)C(O)C2O)c(=O)[nH]c1=O (configuration not stated)
inactive: [10] 97 % of control | [11] 97 % of control | [12] 94 % of control

O=[N+]([O-])c1ccc(OCn2ncc3ccc([N+](=O)[O-])cc32)cc1
inactive: [13] 93 % of control | [14] 98 % of control | [15] 88 % of control

CCOC(=O)C1CC2(OCCO2)c2c(OC)ccc(Cl)c2C1C (configuration not stated)
inactive: dose: 75.0 mg/kg/injection, schedule: Q01DX001 (ip), vehicle: saline 102 % of control | dose: 150.0 mg/kg/injection, schedule: Q01DX001 (ip), vehicle: saline 96 % of control | dose: 300.0 mg/kg/injection, schedule: Q01DX001 (ip), vehicle: saline 94 % of control

CCC1C(=O)OCc2c1cc1n(c2=O)Cc2cc3ccccc3nc2-1 (configuration not stated)
inactive: dose: 2.5 mg/kg/injection, schedule: Q01DX001 (ip), vehicle: saline 102 % of control | dose: 5.0 mg/kg/injection, schedule: Q01DX001 (ip), vehicle: saline 107 % of control | dose: 10.0 mg/kg/injection, schedule: Q01DX001 (ip), vehicle: saline 102 % of control | dose: 15.0 mg/kg/injection, schedule: Q01DX001 (ip), vehicle: saline 118 % of control
